Assay results: ChEMBL document CHEMBL5154646, “Structure-guided optimization of 1H-imidazole-2-carboxylic acid derivatives affording potent VIM-Type metallo-β-lactamase inhibitors” (Eur J Med Chem, 2022)
Active and inactive are the calls of the source. No cut-off for these calls is given here.

Experiments:
[1] = system: Escherichia coli; assay: Potentiation of meropenem-induced antibacterial activity against Escherichia coli C1541 expressing IMP-1 assessed as fold reduction in meropenem MIC at 10 ug/ml incubated for 18 to 20 hrs by CLSI based broth microtiter dilution method; type: functional; conditions: dose 10 µg/ml; time 18-20 hrs
[2] = system: Escherichia coli; assay: Potentiation of meropenem-induced antibacterial activity against Escherichia coli C1580 expressing VIM-2 assessed as fold reduction in meropenem MIC at 10 ug/ml incubated for 18 to 20 hrs by CLSI based broth microtiter dilution method; type: functional; conditions: dose 10 µg/ml; time 18-20 hrs
[3] = Inhibition of bacterial VIM-2 (27 to 266 residues) expressed in Escherichia coli Transetta (DE3) using FC-5 as substrate preincubated with enzyme for 10 mins followed by substrate addition in presence of 100 uM Zn2+ by fluorescence based analysis; set-up: species or system Bacteria
[4] = Cmax in Sprague-Dawley rat at 100 mg/kg, ip by UPLC analysis; type: ADME, organism-based; set-up: dose 100 mg/kg, route ip; conditions: in vivo
[5] = Inhibition of bacterial recombinant full length C-terminal-TEV-His6-tagged VIM-1 expressed in Escherichia coli Transetta using FC-5 as substrate preincubated with enzyme for 10 mins followed by substrate addition by fluorescence based analysis; set-up: species or system Bacteria
[6] = system: Pseudomonas aeruginosa; assay: Potentiation of meropenem-induced antibacterial activity against Pseudomonas aeruginosa W35 expressing VIM-2 assessed as fold reduction meropenem MIC at 10 ug/ml incubated for 18 to 20 hrs in presence of meropenem by CLSI based broth microtiter dilution method; type: functional; conditions: dose 10 µg/ml; time 18-20 hrs
[7] = system: Escherichia coli; assay: Potentiation of meropenem-induced antibacterial activity against Escherichia coli C1542 expressing VIM-2 assessed as meropenem MIC at 10 ug/ml incubated for 18 to 20 hrs by CLSI based broth microtiter dilution method (reference value: 16 ug/ml); type: functional; conditions: dose 10 µg/ml, time 18-20 hrs
[8] = Toxicity in ICR mouse assessed as effect on histological architecture of spleen at 500 to 2000 mg/kg, ip administered for 14 days by hematoxylin and eosin staining based histopathological assay; type: organism-based; conditions: in vivo, 336 h, dose 500-2000 mg/kg, time 14 day
[9] = Toxicity in ICR mouse assessed as mortality at 500 to 2000 mg/kg, ip administered for 14 days; type: organism-based; conditions: in vivo, 336 h, dose 500-2000 mg/kg, time 14 day
[10] = system: Escherichia coli; assay: Synergistic antibacterial activity against Escherichia coli C1541 expressing VIM-2 assessed as fractional inhibitory concentration index incubated for 18 to 20 hrs in presence of meropenem by checkerboard microdilution assay; type: functional; conditions: time 18-20 hrs
[11] = system: Escherichia coli; assay: Antibacterial activity against Escherichia coli C1580 expressing VIM-2 assessed as elongated and filamentous bacterial cells at 20 ug/ml incubated for 1 hr in presence of meropenem by confocal microscopy; type: functional, organism-based; conditions: dose 20.0 µg/ml
[12] = Inhibition of bacterial VIM-2 (27 to 266 residues) expressed in Escherichia coli Transetta (DE3) using FC-5 as substrate preincubated with enzyme for 10 mins followed by substrate addition in presence of 1 uM Zn2+ by fluorescence based analysis; set-up: species or system Bacteria
[13] = Inhibition of bacterial recombinant full length N-terminal-TEV-His6-tagged VIM-5 expressed in Escherichia coli Transetta using FC-5 as substrate preincubated with enzyme for 10 mins followed by substrate addition by fluorescence based analysis; set-up: species or system Bacteria
[14] = system: Escherichia coli; assay: Synergistic antibacterial activity against Escherichia coli C1541 expressing VIM-2 assessed as fractional inhibitory concentration index incubated for 18 to 20 hrs in presence of meropenem and 1 uM of zinc sulfate by checkerboard microdilution assay; type: functional; conditions: time 18-20 hrs
[15] = Inhibition of bacterial NDM-1 (1 to 270 residues) expressed in Escherichia coli Transetta (DE3) using FC-5 as substrate preincubated with enzyme for 10 mins followed by substrate addition by fluorescence based analysis; set-up: species or system Bacteria
[16] = system: Escherichia coli; assay: Potentiation of meropenem-induced antibacterial activity against Escherichia coli C1541 expressing VIM-2 assessed as fold reduction in meropenem MIC at 10 ug/ml incubated for 18 to 20 hrs by CLSI based broth microtiter dilution method; type: functional; conditions: dose 10 µg/ml; time 18-20 hrs
[17] = system: Escherichia coli; assay: Bactericidal activity against Escherichia coli C1580 expressing VIM-2 assessed as induction of bacterial ultrastructural changes by measuring breakdown of cell wall with leakage of cellular contents at 20 ug/ml incubated for 1 hr in presence of meropenem by transmission electron microscopy; type: functional, organism-based; conditions: dose 20.0 µg/ml
[18] = Half life in Sprague-Dawley rat at 100 mg/kg, ip by UPLC analysis; type: ADME, organism-based; conditions: in vivo
[19] = Tmax in Sprague-Dawley rat at 100 mg/kg, ip by UPLC analysis; type: ADME, organism-based; conditions: in vivo
[20] = system: Escherichia coli; assay: Potentiation of meropenem-induced antibacterial activity against Escherichia coli C1541 expressing IMP-1 assessed as meropenem MIC at 10 ug/ml incubated for 18 to 20 hrs by broth microtiter dilution method (reference value: 32 ug/ml); type: functional; conditions: dose 10 µg/ml, time 18-20 hrs
[21] = Toxicity in ICR mouse assessed as effect on histological architecture of heart at 500 to 2000 mg/kg, ip administered for 14 days by hematoxylin and eosin staining based histopathological assay; type: organism-based; conditions: in vivo, 336 h, dose 500-2000 mg/kg, time 14 day
[22] = Toxicity in ICR mouse assessed as change in body weight at 500 to 2000 mg/kg, ip administered for 14 days; type: organism-based; conditions: in vivo, 336 h, dose 500-2000 mg/kg, time 14 day
[23] = system: Escherichia coli; assay: Potentiation of meropenem-induced antibacterial activity against Escherichia coli C1542 expressing VIM-2 assessed as fold reduction in meropenem MIC at 10 ug/ml incubated for 18 to 20 hrs by CLSI based broth microtiter dilution method; type: functional; conditions: dose 10 µg/ml; time 18-20 hrs
[24] = system: Escherichia coli; assay: Potentiation of meropenem-induced antibacterial activity against Escherichia coli C1580 expressing VIM-2 assessed as meropenem MIC at 10 ug/ml incubated for 18 to 20 hrs by CLSI based broth microtiter dilution method (reference value: 32 ug/ml); type: functional; conditions: dose 10 µg/ml, time 18-20 hrs
[25] = system: Pseudomonas aeruginosa; assay: Synergistic antibacterial activity against Pseudomonas aeruginosa W35 expressing VIM-2 assessed as fractional inhibitory concentration index incubated for 18 to 20 hrs in presence of meropenem by checkerboard microdilution assay; type: functional; conditions: time 18-20 hrs
[26] = system: Pseudomonas aeruginosa; assay: Induction of morphological changes in Pseudomonas aeruginosa W35 expressing VIM-2 assessed as elongated morphology with localized swelling at 10 ug/ml incubated for 1 hr in presence of meropenem by confocal microscopic analysis; type: functional, organism-based; conditions: dose 10.0 µg/ml
[27] = Toxicity in ip dosed ICR mouse assessed as maximum tolerated dose administered for 14 days; type: organism-based; conditions: in vivo, time 14 day
[28] = system: Pseudomonas aeruginosa; assay: Induction of morphological changes in Pseudomonas aeruginosa W35 expressing VIM-2 assessed as localized swelling, elongation with increased cell permeability at 10 ug/ml incubated for 1 hr in presence of meropenem by transmission electron microscopy; type: functional, organism-based; conditions: dose 10.0 µg/ml
[29] = system: Pseudomonas aeruginosa; assay: Potentiation of meropenem-induced antibacterial activity against Pseudomonas aeruginosa 5621 expressing VIM-2 assessed as meropenem MIC at 100 ug/ml incubated for 18 to 20 hrs in presence of meropenem by CLSI based broth microtiter dilution method (reference value: 64 ug/ml); type: functional; conditions: dose 100 µg/ml, time 18-20 hrs
[30] = Toxicity in ICR mouse assessed as effect on histological architecture of liver at 500 to 2000 mg/kg, ip administered for 14 days by hematoxylin and eosin staining based histopathological assay; type: organism-based; conditions: in vivo, 336 h, dose 500-2000 mg/kg, time 14 day
[31] = system: Pseudomonas aeruginosa; assay: Induction of morphological changes in Pseudomonas aeruginosa W35 expressing VIM-2 at 10 ug/ml incubated for 1 hr by transmission electron microscopy; type: functional, organism-based; conditions: dose 10.0 µg/ml

For `O=C(O)c1nccn1Cc1ccncc1`, the “fold change (FC)” value [1] was 1, the “fold change (FC)” value [2] was 32 and the IC50 [3] was 1.75 µM. The Cmax [4] was 143 µg/mL, the IC50 [5] was 29.5 µM and the “fold change (FC)” value [6] was 4. The MIC [7] was < 0.25 µg/mL, the Activity [8] was “Non-Toxic” and the Activity [9] was “Non-Toxic”. The “fractional inhibitory concentration index (FICI)” value [10] was 0.05, the Activity [11] was “Active” and the IC50 [12] was 0.22 µM. For the same compound, the IC50 [13] was 5.78 µM, the “fractional inhibitory concentration index (FICI)” value [14] was 0.05 and the IC50 [15] was > 300 µM. For the same compound, the “fold change (FC)” value [16] was >64, the Activity [17] was “Active” and the half-life [18] was 74.4 min. For the same compound, the Tmax [19] was 9 min, the MIC [20] was 32 µg/mL and the Activity [21] was “Non-Toxic”. The Activity [22] was “Non-Toxic”, the “fold change (FC)” value [23] was >64 and the MIC [24] was 1 µg/mL. For the same compound, the “fractional inhibitory concentration index (FICI)” value [25] was 0.25, the Activity [26] was “Active” and the MTD at 336 h [27] was ≤ 2000 mg/kg. For the same compound, the Activity [28] was “Active”, the MIC [29] was 32 µg/mL and the Activity [30] was “Non-Toxic”. The Activity [31] was “Active”.
